In assay [1] the target is T1, human EP3 receptor (Homo sapiens, UniProt P43115).
T1 construct: expressed in transfected cells
T1 sequence (P43115 1-390): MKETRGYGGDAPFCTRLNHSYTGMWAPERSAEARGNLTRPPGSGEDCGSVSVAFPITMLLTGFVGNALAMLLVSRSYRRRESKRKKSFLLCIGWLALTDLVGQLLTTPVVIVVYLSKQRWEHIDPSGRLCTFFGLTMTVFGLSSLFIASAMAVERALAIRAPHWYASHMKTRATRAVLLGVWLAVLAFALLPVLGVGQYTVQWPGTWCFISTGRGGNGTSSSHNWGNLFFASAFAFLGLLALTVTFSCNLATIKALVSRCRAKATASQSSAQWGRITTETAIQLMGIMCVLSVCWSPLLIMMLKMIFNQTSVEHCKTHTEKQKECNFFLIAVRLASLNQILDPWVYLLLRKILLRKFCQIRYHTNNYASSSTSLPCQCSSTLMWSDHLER
In words: Binding ability to human EP3 receptor ([3H]PGE2 displacement). As to conditions: membranes from cells stably transfected with human EP receptor cDNA; [3H]PGE2 2.5 nM; Cheng-Prusoff from IC50; read-out: pKi EP3 (converted). The method, boiled down:
(§1)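 Membranes from cells stably transfected with human EP receptor cDNA were incubated to equilibrium with [3H]PGE2 and compound (0.1 to 10 000 nM). Non-specific binding was defined with 10 uM PGE2; bound radioligand was separated by vacuum filtration and counted by scintillation.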

The target of assay [2] is T2, human EP4 receptor (Homo sapiens, UniProt P35408).
T2 construct: expressed in transfected cells
Kind of assay: Binding ability to human EP4 receptor ([3H]PGE2 displacement). The note with it: read-out: pKi EP4 (converted).

The target of assay [3] is T3, human EP2 receptor (Homo sapiens, UniProt P43116).
T3 construct: expressed in transfected cells
In words: Binding ability to human EP2 receptor ([3H]PGE2 displacement). As to conditions: read-out: pKi EP2 (converted). The procedure, abridged: as §1

In assay [4] the target is T4, human EP1 receptor (Homo sapiens, UniProt P34995).
T4 construct: expressed in transfected cells
T4 sequence (P34995 1-402): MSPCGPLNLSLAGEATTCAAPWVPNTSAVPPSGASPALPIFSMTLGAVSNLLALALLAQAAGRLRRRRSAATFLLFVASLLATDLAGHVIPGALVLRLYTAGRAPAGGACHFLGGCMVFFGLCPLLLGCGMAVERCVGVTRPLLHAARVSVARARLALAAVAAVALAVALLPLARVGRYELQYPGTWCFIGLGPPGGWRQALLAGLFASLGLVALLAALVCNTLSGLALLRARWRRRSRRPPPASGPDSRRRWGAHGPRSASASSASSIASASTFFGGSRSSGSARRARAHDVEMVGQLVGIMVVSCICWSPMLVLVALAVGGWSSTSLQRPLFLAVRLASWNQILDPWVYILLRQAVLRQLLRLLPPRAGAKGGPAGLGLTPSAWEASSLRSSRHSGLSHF
Kind of assay: Binding ability to human EP1 receptor ([3H]PGE2 displacement). As to conditions: membranes from cells stably transfected with human EP receptor cDNA; [3H]PGE2 3.6 nM; Cheng-Prusoff from IC50; read-out: pKi EP1 (converted). As for the experimental part:
Membranes were prepared from cells stably transfected with human EP receptor cDNA. In brief, cells were cultured to confluency, scraped from culture flasks, and centrifuged (800 g, 8 minutes, 4° C.). Cells were twice washed in ice cold homogenisation buffer containing 10 mMTris-HCl, 1 mM EDTA. 2Na, 250 mM sucrose, 1 mM PMSF, 0.3 mM indomethacin, pH 7.4, homogenised and re-centrifuged as before. The supernatant was stored on ice and pellets re-homogenised and re-spun. Supernatants were pooled and centrifuged at 40000 g, 10 minutes, 4° C. Resultant membrane pellets were stored at −80° C. until use.
For assay, membranes expressing human EP4, EP3, EP2 or EP1 receptors were incubated in Millipore (MHVBN45) plates containing assay buffer, radiolabelled [^3H]PGE2 and 0.1 to 10 000 nM concentrations of compounds. Incubations were performed at suitable temperatures and for suitable times to allow equilibrium to be reached. Non-specific binding was determined in the presence of 10 uM PGE2. Bound and free radiolabel was separated by vacuum manifold filtration using appropriate wash buffers, and bound radiolabel was determined by scintillation counting. Constituents of each of the buffers are included in table 1 below.
This approach follows that set out in Kenakin, T. P., Pharmacologic analysis of drug receptor interaction. Raven Press, New York, 2nd edition.

T3 sequence (P43116 whole entry): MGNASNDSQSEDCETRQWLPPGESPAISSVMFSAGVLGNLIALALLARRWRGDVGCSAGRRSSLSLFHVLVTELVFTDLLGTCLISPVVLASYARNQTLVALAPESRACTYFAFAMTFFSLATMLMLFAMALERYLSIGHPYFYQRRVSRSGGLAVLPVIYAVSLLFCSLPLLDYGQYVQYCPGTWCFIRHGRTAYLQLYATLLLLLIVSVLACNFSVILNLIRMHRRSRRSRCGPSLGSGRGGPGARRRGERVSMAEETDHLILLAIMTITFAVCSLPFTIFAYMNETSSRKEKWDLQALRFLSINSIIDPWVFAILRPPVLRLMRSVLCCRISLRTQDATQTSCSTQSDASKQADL
T2 sequence (P35408 whole entry): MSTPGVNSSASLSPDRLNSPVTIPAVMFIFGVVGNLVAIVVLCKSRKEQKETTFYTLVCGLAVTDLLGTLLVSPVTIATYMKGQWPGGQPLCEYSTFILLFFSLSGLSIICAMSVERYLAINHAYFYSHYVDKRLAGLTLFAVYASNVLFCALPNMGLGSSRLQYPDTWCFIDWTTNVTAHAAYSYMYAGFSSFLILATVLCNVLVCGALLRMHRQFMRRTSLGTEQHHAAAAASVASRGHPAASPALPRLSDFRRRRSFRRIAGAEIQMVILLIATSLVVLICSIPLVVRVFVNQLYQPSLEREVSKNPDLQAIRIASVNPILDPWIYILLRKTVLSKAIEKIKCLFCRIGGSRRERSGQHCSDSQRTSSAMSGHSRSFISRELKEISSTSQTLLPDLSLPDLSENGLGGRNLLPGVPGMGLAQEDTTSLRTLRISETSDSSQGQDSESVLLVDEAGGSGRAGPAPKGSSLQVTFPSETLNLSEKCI

For the molecule `COc1ccc(-c2ccc(NC(=O)c3cc(C(=O)O)oc3C)cc2)cc1` [Compound 24, 4-(4′-Methoxy-biphenyl-4-ylcarbamoyl)-5-methyl-furan-2-carboxylic acid], the Ki in assay [1] is above 10 µM; in assay [2], below 0.316 µM; in assay [3], above 10 µM; in assay [4] it was above 10 µM.
Turning to `COc1ccc(-c2ccc(OCc3cc(S(=O)(=O)NC(=O)c4ccccc4)oc3C)cc2)cc1` [Compound 49, 4-(4′-Methoxy-biphenyl-4-yloxymethyl)-5-methyl-furan-2-sulfonic acid benzoylamide], the Ki in assay [1] was above 10 µM; in assay [2], below 0.01 µM; in assay [3], above 10 µM; in assay [4], above 10 µM.
In the case of `Cc1ccccc1S(=O)(=O)NC(=O)c1cc(COc2ccc(-c3ccccc3)cc2)c(C)o1` [Compound 60, N-[4-(Biphenyl-4-yloxymethyl)-5-methyl-furan-2-carbonyl]-2-methyl-benzenesulphonamide], the Ki in assay [1] was above 10 µM; in assay [2], below 0.01 µM; in assay [3] it was above 10 µM; in assay [4], above 10 µM.
As for `Cc1oc(C(=O)O)cc1CN(C)c1ccc(-c2ccc(OC(F)F)cc2)cc1` [Compound 176, 4-{[(4′-Difluoromethoxy-biphenyl-4-yl)-methyl-amino]-methyl}-5-methyl-furan-2-carboxylic acid], the Ki in assay [1] is above 10 µM; in assay [2] it was below 0.316 µM; in assay [3], above 10 µM.
As to `Cc1ccccc1S(=O)(=O)NC(=O)c1cc(CN(C)c2ccc(-c3ccc(OC(F)F)cc3)cc2)c(C)o1` [Compound 177, N-(4-{[(4′-Difluoromethoxy-biphenyl-4-yl)-methyl-amino]-methyl}-5-methyl-furan-2-carbonyl)-2-methyl-benzenesulfonamide], the Ki in assay [1] is above 10 µM; in assay [2], below 0.0316 µM; in assay [3], above 10 µM.
